The values that follow come from US5254565A, “Quinoline derivatives, their production and use” (priority 1988, dated 1993).

One may read the inhibition as the percentage by which the read-out fell short of the control.

In one assay the test system is plasma cholesterol. The assay is described as follows: Plasma cholesterol lowering activity in cholesterol fed rat. The assay is classed as in vivo, rat (7-week old, male Sarague Dawley rats). The conditions noted are these: diet containing 0.0005% of test compound for 4 days; mean ± standard deviation; control 240 ± 85; *p < 0.05 (t test vs control group); Dose (mg/kg/day): 23 0.40 ± 0.03, 30 0.45 ± 0.02, 32 0.43 ± 0.04. On the procedure: 2. Plasma cholesterol lowering activity in cholesterol fed rat.
1% Cholesterol diet (containing 0.5% of cholic acid and 5% of olive oil) was fed to 7-week old, male Sarague Dawley rats for 3 days. The rats were grouped by the plasma cholesterol level, and fed by the same diet containing 0.0005% of a test compound for 4 days. Blood was collected from rats during 8:30-10:00 am at the fed state, and the plasma cholesterol level was measured enzymatically. The amount of a test compound consumed by rats was calculated on the basis of the amount of the diet consumed by the rats.

Assay [1] addresses T1, Acyl-CoA : cholesterol acyltransferase (ACAT) (Rattus norvegicus, UniProt Q7TQM4).
T1 construct: from the mucosal microsome fraction of the small intestine of male, 6-week old Sprague-Dawley rats; from tissue; host or cells: mucosal microsome fraction of the small intestine of male 6-week old Sprague-Dawley rats, fasted for 20 hours
T1 sequence (Q7TQM4 1-524): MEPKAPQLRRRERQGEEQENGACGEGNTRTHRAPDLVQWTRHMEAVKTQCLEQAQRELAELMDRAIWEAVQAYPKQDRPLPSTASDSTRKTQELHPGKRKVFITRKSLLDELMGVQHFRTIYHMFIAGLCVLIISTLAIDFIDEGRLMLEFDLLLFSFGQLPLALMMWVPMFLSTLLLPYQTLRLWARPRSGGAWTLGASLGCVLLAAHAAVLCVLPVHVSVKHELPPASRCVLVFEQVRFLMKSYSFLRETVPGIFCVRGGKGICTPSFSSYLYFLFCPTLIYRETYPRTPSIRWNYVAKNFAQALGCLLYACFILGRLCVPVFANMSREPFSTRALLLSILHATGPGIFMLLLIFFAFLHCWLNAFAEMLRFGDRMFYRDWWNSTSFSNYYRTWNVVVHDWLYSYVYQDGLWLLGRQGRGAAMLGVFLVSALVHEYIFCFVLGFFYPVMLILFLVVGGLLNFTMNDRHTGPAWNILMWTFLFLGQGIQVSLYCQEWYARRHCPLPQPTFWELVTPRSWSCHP
The assay is described as follows: Acyl-CoA : cholesterol acyltransferase (ACAT) inhibitory activity: production of labeled cholesterol ester from [1-^14 C] oleoyl-CoA and endogenous cholesterol. The assay is classed as biochemical. To be noted: read-out: ACAT Inhibition Rate; for inhibition at 1 µM: 10^-6 M test compound; for inhibition at 0.01 µM: 10^-8 M test compound. How it is done:
1. Acyl-CoA : cholesterol acyltransferase (ACAT) inhibitory activity.
The enzyme ACAT was prepared by the method of Heider et al. described in Journal of Lipid Research, Vol. 24, page 1127 (1982), from the mucosal microsome fraction of the small intestine of male, 6-week old Sprague-Dawley rats which had been fasted for 20 hours.
ACAT activity was calculated by the method of Helgerud et al. described in Journal of Lipid Research, Vol. 22, page 271 (1981), namely, by measuring the amount of the labeled cholesterol ester produced from [1-^14 C] oleoyl-CoA and endogenous cholesterol.
Inhibition rates (%) of the production of the labeled cholesterol ester wherein 10^-6 M-10^-8 M of test compounds were added are shown as an index of ACAT inhibitory activity in Table 1.

The structures appear in SMILES notation.

In the case of `O=C(Nc1ccc(F)cc1F)Nc1cnc2ccc(Cl)cc2c1-c1ccccc1Cl` [Example 23, 6-Chloro-4-(2-chlorophenyl)-3-[3-(2,4-difluorophenyl)ureido]quinoline], the “Plasma Cholesterol” value in the assay on plasma cholesterol was 126 ± 33 mg/dL. In assay [1], the inhibition at 1 µM is 98% and the inhibition at 0.01 µM is 34.3%. Moreover, the inhibition at 0.1 µM in assay [1] (10^-7 M test compound) amounted to 94.1%.

As for `Cc1ccc2ncc(NC(=O)Nc3ccc(F)cc3F)c(-c3ccccc3Cl)c2c1` [Example 30, 4-(2-Chlorophenyl)-3-[3-(2,4-difluorophenyl)ureido]-6-methylquinoline], the “Plasma Cholesterol” value in the assay with plasma cholesterol is 143 ± 21 mg/dL. Besides, the inhibition at 1 µM in assay [1] worked out at 98.5%.

On to `Cc1cc(C)c2ncc(NC(=O)Nc3ccc(F)cc3F)c(-c3ccccc3Cl)c2c1` [Example 32, 4-(2-Chlorophenyl)-3-[3-(2,4-difluorophenyl)ureido]-6,8-dimethylquinoline], for which, in the assay with plasma cholesterol, the “Plasma Cholesterol” value amounted to 119 ± 46 mg/dL. Besides, in assay [1], the inhibition at 1 µM worked out at 98.9% and the inhibition at 0.01 µM amounted to 52.1%.

Consider `Cc1cc(C)c2ncc(NC(=O)Nc3c(F)cc(F)cc3F)c(-c3ccccc3Cl)c2c1` [Example 62, 4-(2-chlorophenyl)-6,8-dimethyl-3-[3-(2,4,6-trifluorophenyl)ureido]quinoline], for which the inhibition at 1 µM in assay [1] was determined as 97.3%.

On to `Cc1cc(C)c2c(c1)c(-c1ccccc1Cl)c(NC(=O)Nc1ccc(F)cc1F)c[n+]2[O-]` [Example 63, 4-(2-chlorophenyl)-3-[3-(2,4-difluorophenyl)ureido]-6,8-dimethylquinoline 1-oxide], for which the inhibition at 1 µM in assay [1] came to 94.4%.

Regarding `COc1cc(NC(=O)Nc2cnc3c(C)cc(C)cc3c2-c2ccccc2Cl)cc(OC)c1OC` [Example 64, 4-(2-chlorophenyl)-6,8-dimethyl-3-[3-(3,4,5-trimethoxyphenyl)ureido]-quinoline], the inhibition at 1 µM in assay [1] was 69.7%.

Consider `Cc1cc(C)c2ncc(N(Cc3cc(C(C)(C)C)c(O)c(C(C)(C)C)c3)C(=O)Nc3ccc(F)cc3F)c(-c3ccccc3Cl)c2c1` [Example 67, 3-[1-(3,5-Di-tert-butyl-4-hydroxybenzyl)-3-(2,4-difluorophenyl)ureido]-4-(2-chlorophenyl)-6,8-dimethylquinoline], for which the inhibition at 1 µM in assay [1] was found to be 90.1%.

With `COc1ccc(-c2c(NC(=O)Nc3ccc(F)cc3F)cnc3ccc(Cl)cc23)c(OC)c1OC` [Example 68, 6-Chloro-3-[3-(2,4-difluorophenyl)ureido]-4-(2,3,4-trimethoxyphenyl)quinoline], in assay [1], the inhibition at 1 µM amounted to 98%.

With `COc1ccc(-c2c(NC(=O)Nc3ccc(F)cc3F)cnc3ccc(Cl)cc23)c(O)c1OC` [Example 69, 6-Chloro-3-[3-(2,4-difluorophenyl)ureido]-4-(2-hydroxy-3,4-dimethoxyphenyl)quinoline], the inhibition at 1 µM in assay [1] was determined as 78.2%.

On to `Cc1cc(C)c2ncc(NC(=O)Nc3c(C)cccc3C)c(-c3ccccc3Cl)c2c1` [Example 70, 4-(2-Chlorophenyl)-6,8-dimethyl-3-[3-(2,6-dimethyl-phenyl)ureido]quinoline], for which, in assay [1], the inhibition at 1 µM was 97.9%.

With `Cc1cc(C)c2ncc(NC(=O)Nc3c(C(C)C)cccc3C(C)C)c(-c3ccccc3Cl)c2c1` [Example 71, 4-(2-Chlorophenyl)-3-[3-(2,6-diisopropylphenyl)ureido]-6,8-dimethylquinoline], the inhibition at 1 µM in assay [1] stood at 98%.

On to `Cc1cc(C)c2ncc(NC(=O)Nc3ccc([N+](=O)[O-])cc3)c(-c3ccccc3Cl)c2c1` [Example 72, 4-(2-Chlorophenyl)-3-[3-(4-nitrophenyl)ureido]-6,8-dimethylquinoline], for which the inhibition at 1 µM in assay [1] stood at 97.3%.

Turning to `Cc1cc2ncc(NC(=O)Nc3ccc(F)cc3F)c(-c3ccccc3Cl)c2cc1C` [Example 73, 4-(2-Chlorophenyl)-3-[3-(2,4-difluorophenyl)ureido]-6,7-dimethylquinoline], the inhibition at 1 µM in assay [1] was 99.6%.

Turning to `Cc1cc2c(-c3ccccc3Cl)c(NC(=O)Nc3ccc(F)cc3F)cnc2c(C)c1C` [Example 74, 4-(2-Chlorophenyl)-3-[3-(2,4-difluorophenyl)ureido]-6,7,8-trimethylquinoline], in assay [1], the inhibition at 1 µM is 99.3%.

On to `O=C(Nc1ccc(F)cc1F)Nc1cnc2ccc(Cl)cc2c1-c1ccc(O)c(O)c1` [Example 75, 6-chloro-3-[3-(2,4-difluorophenylureido]-4-(3,4-dihydroxyphenyl)quinoline.1/2hydrate], for which the inhibition at 1 µM in assay [1] was 61.2%.

On to `CC(=O)Oc1c(C)cc(NC(=O)Nc2cnc3c(C)cc(C)cc3c2-c2ccccc2Cl)cc1C` [Example 77, 3-[3-(4-Acetoxy-3,5-dimethylphenyl)ureido]-4-(2-chlorophenyl)-6,8-dimethylquinoline], for which the inhibition at 1 µM in assay [1] stood at 96.2%.

In the case of `CC(=O)Oc1c(C)cc(NC(=O)Nc2cnc3c(C)cc(C)cc3c2-c2ccccc2Cl)c(C)c1C` [Example 78, 3-[3-(4-Acetoxy-2,3,5-trimethylphenyl)ureido]-4-(2-chlorophenyl)-6,8-dimethylquinoline], the inhibition at 1 µM in assay [1] amounted to 98.2%.

For the compound `Cc1cc(C)c2ncc(NC(=O)Nc3cc(C(C)C)c(O)c(C(C)C)c3)c(-c3ccccc3Cl)c2c1` [Example 79, 4-(2-chlorophenyl)-3-[3-(4-hydroxy-3,5-diisopropylphenyl)ureido]-6,8-dimethylquinoline], the inhibition at 1 µM in assay [1] was found to be 79.9%.

`Cc1cc(C)c2ncc(NC(=O)Nc3cc(C)c(O)c(C)c3)c(-c3ccccc3Cl)c2c1` [Example 80, 4-(2-Chlorophenyl)-3-[3-(4-hydroxy-3,5-dimethylphenyl)ureido]-6,8-dimethylquinoline]: the inhibition at 1 µM in assay [1] is 95.9%.

On to `Cc1cc(C)c2ncc(NC(=O)Nc3cc(C)c(O)c(C)c3C)c(-c3ccccc3Cl)c2c1` [Example 81, 4-(2-Chlorophenyl)-3-[3-(4-hydroxy-2,3,5-trimethylphenyl)ureido]-6,8-dimethylquinoline], for which the inhibition at 1 µM in assay [1] amounted to 97.9%.

Take `Cc1cccc2ncc(NC(=O)Nc3ccc(F)cc3F)c(-c3ccccc3Cl)c12` [Example 83, 4-(2-Chlorophenyl)-3-[3-(2,4-difluorophenyl)ureido]-5-methylquinoline]: in assay [1], the inhibition at 1 µM came out at 87.3%.
